“And” between values parts separate entries of the source, which are not always exact repeats. Equal entries are not always repeated.
Legend:
Assay type in all cases: in vivo
[1] = tested on: corn seeds of the variety LG 32.58; assay: Internal glycine-betaine concentration in corn seeds after foliar application, variety LG 32.58 (field trial, 1H-NMR)
Method: (§1) The field trial was performed with two different varieties of corn: the LG 32.58 variety and the Casey variety.
(§2) To prevent auto-fertilization during the corn seed production, the male reproductive parts of the female line were removed prior to the time of pollen shed.
[…] Each repetition consists of 18 plants. Control plants were treated with water.
(§3) Seeds (200) were collected at maturity. Seeds were ground using a ball mill and extracted with ethanol. Samples were evaporated to dryness and dissolved in deuterium oxide (D20) (50 mg/ml). 1H-NMR analysis (Bruker, at 500 MHz) was performed using 3-(trimethylsilyl)-1-propane sulfonate sodium salt (DSS) as the internal standard. Values in ppm assigned to NMR signals are chemical shifts of the 9 protons which give the signal, for the glycine-betaine, at 3.251 ppm. A total of three extractions were performed on each sample.

[2] = tested on: corn seeds of the variety Casey; assay: Internal glycine-betaine concentration in corn seeds after foliar application, variety Casey (field trial, 1H-NMR); conditions: Greenstim sprayed on female line leaves at grain development stage, 4 kg/hectare, seeds collected at maturity, Rep 1-3, letter b differs from water control (p < 0.05)
Method: as §1, §2
(§4) The commercial Greenstim® (Lallemand) formulation was sprayed to the female line leaves during grain development stage at the equivalent of 4 kg/hectare. Each repetition consists of 18 plants. Control plants were treated with water.
as §3

corn seed = assay: Effect of cold temperature on corn seed germination
Method: Two hundred seeds of each treatment (plants treated with water and plants treated with glycine-betaine) were planted onto moistened sand. Samples were placed into a germination chamber at 10° C. for a period of 7 days. Samples were then transferred to a germination chamber set to 25° C. for 5 days. The experiment was conducted with a variety of seeds with increased cold tolerance compared to more traditional seed varieties. The germination rate of standard seeds after a cold germination test is between 50 to 70%.

corn seed Variety 1 = assay: Internal concentration of glycine-betaine (mg/kg) in corn seed, Variety 1 female lines; conditions: for Percentage increase in internal GB concentration: versus plants treated with water
Method: as §2, §4, §3

In the case of `C[N+](C)(C)CC(=O)[O-]` [GB, N,N,N-trimethylglycine], the “GB concentration, GB (plants treated with GB)” value ([1]; corn variety LG 32.58, Greenstim sprayed on female line leaves at grain development stage, 4 kg/hectare, seeds collected at maturity, Rep 1-3, letter b differs from water control (p < 0.05)) is reported as 41.18b μg · g^−1 MS and 37.71b μg · g^−1 MS and 38.53b μg · g^−1 MS, the “Internal glycine-betaine content of the seeds compared to untreated seeds” value ([1]; summary of Tables 1 to 4, plants sprayed at the flowering stage) is reported as “significantly higher” and the “GB concentration, GB (plants treated with GB)” value [2] is reported as 79.19b μg · g^−1 MS and 79.33b μg · g^−1 MS and 83.91b μg · g^−1 MS. For the same compound, the “Seed germination percentage (plants treated with GB)” value (corn seed; Variety-female 3, 200 seeds on moistened sand, 10° C. for 7 days then 25° C. for 5 days) was 86.61, the “Percentage increase in germination” value (corn seed; Variety-female 3, after cold treatment, versus seeds from plants treated with water) was 2.1% and the “Seed germination percentage after cold treatment compared with untreated seeds” value (corn seed; summary of Table 5, seeds with increased internal content of glycine-betaine) was “significantly better seed germination percentage”. For the same compound, the “Internal concentration of glycine-betaine in corn seed, Mean GB (plants treated with GB)” value (shortened to “Internal concentration”) (corn seed Variety 1; Variety 1-female 1, Rep 1) was 6.67 mg/kg, the “Percentage increase in internal GB concentration” value (corn seed Variety 1; Variety 1-female 1, Rep 1) was 53% and the “Internal concentration” value (corn seed Variety 1; Variety 1-female 2, Rep 2) was 5.19 mg/kg. For the same compound, the “Percentage increase in internal GB concentration” value (corn seed Variety 1; Variety 1-female 2, Rep 2) was 1135%, the “Internal concentration” value (corn seed Variety 1; Variety 1-female 3, Rep 3) was 6.89 mg/kg and the “Percentage increase in internal GB concentration” value (corn seed Variety 1; Variety 1-female 3, Rep 3) was 15%.

Reference: patent US20210169077A1, “METHOD FOR IMPROVING SEED GERMINATION AND/OR PLANT TOLERANCE TO ENVIRONMENTAL STRESS” (DANSTAR FERMENT AG, priority 2017, published 2021)
